Patent US20080153792A1, “Drug Identification and Treatment Method” (priority 2006, published 2008)

Key:
female SJL mice, EAE = test: experimental autoimmune encephalomyelitis (EAE), PLP-induced, Example 23; type: in vivo, mouse; settings: 0.1 mg q.d. po from clinical onset
[1] = metabolic stability in liver microsomes: human
Protocol: (§1) The protocol was performed as follows. […] (2) Set up samples as follows. […] (4) The internal standard/acetonitrile solution.

androgen receptor = androgen receptor (Homo sapiens, UniProt P10275); test: interaction with androgen receptor
[2] = test system: C57/BL6 mice, LPS-induced acute lung inflammation; test: LPS-induced lung injury, BAL and lung MPO, Example 11; type: in vivo, mouse; settings: 40 mg/Kg orally; 48 h after LPS
CaCo-2 cell monolayer = test: drug absorption with CaCo-2 cells; type: in vitro ADME, human
Protocol: Measurement of drug absorption with CaCo-2 cells. This protocol was used to measure the influx of compounds across a CaCo-2 cell monolayer. […] This cell line is used to study the rate at which various compounds cross the cell monolayer. […] This can provide information about a compound's potential to be orally bioavailable.
In this protocol, the cells were maintained in medium at 37° C., using 100 μL per well of warm medium in a sterile 50 ml tube. The cells were grown on sterile 24-well plates with 600 μL of differentiation medium per well. The wells contained a transwell insert to allow two compartments per well. […]
After differentiation medium reached room temperature, about 20 mL was poured into a small beaker. […] Each well was measured by the probe by inserting the probe into the well without touching the cell monolayer; press the TEST button when the probe is close to the medium surface and the reading will go from 0000 to a number when the probe touches the surface; a reading >1000Ω was acceptable. […]
20 μL of the 3α,7β,16α,17β-tetrahydroxyandrost-5-ene internal standard was added to each tube and 1500 μL of methyl-t-butyl ether was added to each tube. […] The methyl-t-butyl ether was then evaporated under nitrogen and reconstituted in 120 μL acetonitrile/water (35:65) and analyzed by LCMS.

[3] = other protocols: degree of sulfation and glucuronidation
MG-63 cells = test: reversal of glucocorticoid effects in MG-63 osteosarcoma cells; type: cell-based, human; settings: 0.1 μM compound
[4] = metabolic stability in liver microsomes: mouse; settings: 10 min
Protocol: as §1

[5] = test system: estrogen receptor-s or estrogen receptor-s; test: interaction with estrogen receptors
[6] = test system: 8 week old db/db diabetic mice; test: hyperinsulinemic-euglycemic clamp in db/db mice; type: in vivo, mouse
Protocol: Glucose lowering in 8 week old db/db diabetic mice. The hyperinsulinemic-euglycemic clamp protocol was conducted to measure insulin sensitivity in vivo. In this procedure, insulin was administered to raise the insulin concentration while glucose was infused to maintain euglycemia or a fixed, normal blood glucose level (about 180 mg/dL). […] The objective of this protocol was to investigate characterize the capacity of 17α-ethynylandrost-5-ene-3β,7β,17β-triol and androst-5-ene-3β,7β,16α,17β-tetrol to ameliorate systemic insulin resistance and improve whole body glucose disposal in the hyperinsulinemic-euglycemic clamp model. The degree of skeletal muscle and hepatic insulin sensitivity and tissue specific glucose uptake were also assessed. The animals were dosed daily by oral gavage for 14 days. On Day 10 of treatment catheters were implanted in the carotid artery and jugular vein. On the day of the clamp (day 14) the compound was administered at 7:30 am.
Body weight and glucose concentration were assessed on day 0, 7 and day 14 of treatment. On day 14 a euglycemic hyperinsulinemic clamp was performed. […] Plasma ^14C 2-deoxyglucose was assessed at 122, 125, 130, 135, 145 min. […]
Analysis was conducted as follows. Plasma samples were deproteinized with Ba(OH)2 (0.3 N) and ZnSO4 (0.3 N), dried and radioactivity was assessed on scintillation counter (Packard TRICARB 2900 TR, Meriden, Conn.). […] One supernatant was directly counted to determine radioactivity from both [14C] […] A second aliquot was treated with Ba(OH)2 and ZnSO4 to remove ^14C DGP and any tracer incorporated into glycogen and then counted to determine radioactivity from free [^14C]DG(2). [^14C]DGP was calculated as the difference between the two aliquots. […] Rg, an index of tissue specific glucose uptake was calculated as previously described (E. W. Kraegen et al., Am. J. Physiol., 248:E353-E362, 1985). Whole body glucose turnover was calculated as the ratio of the ^3H glucose infusion rate (dpm/kg/min) and arterial plasma glucose specific activity (dpm/mg). […]

[7] = test system: rats hemorrhaged to mean arterial pressure of about 35-40 mmHg; test: reduced blood pressure hemorrhagic trauma protocol; type: in vivo, rat; settings: one s.c. injection 40 mg/kg; n=7; untreated group 75%
Protocol: A reduced blood pressure hemorrhagic trauma protocol was also conducted as a second model of hemorrhagic trauma. In this protocol, 15 rats were hemorrhaged described above to a mean arterial pressure of about 35-40 mmHg and resuscitated one hour from onset of the hemorrhage with crystalloid and PRBCs. Seven […] subcutaneous injection of androst-5-ene-3β,7β,17β-triol in a methyl cellulose suspension at a concentration of 40 mg/kg body weight in 100 μL/kg body weight, one hour after initiation of hemorrhage, but before fluid resuscitation. Eight animals received subcutaneous methyl cellulose control injection at 100 μL/kg body weight. Two days after induction of hemorrhage, mortality in the untreated group (n=8) was 75%.

11β-HSD1 mRNA = test: liver mRNA by RT-PCR in rats fed compound in chow: 11β-HSD1; type: in vivo, rat; settings: 0.45% wt/wt in chow for 6 days; control 100%
Text: (§2) Rats were fed ad libum with a standard laboratory chow that contained 0.45% wt/wt of androst-5-ene-3β,7β,17β-triol for 6 days, followed by analysis of liver tissue on day 6 for levels of phosphoenolpyruvate carboxykinase (“PEPCK”) and 11β-hydroxysteroid dehydrogenase (“11β-HSD”) in the liver. Control animals were fed normal chow and livers were examined on day 6 for PEPCK and 11β-HSD levels by measurement of messenger RNAs (mRNAs) by RT-PCR. Both control and treated animals had free access to water. […] Levels of PPARα mRNA in these animals were not affected by feeding with androst-5-ene-3β,7β,17β-triol.

[8] = test system: rats, trauma and hemorrhage; test: rat model of hemorrhagic trauma, 40% loss of total blood volume; type: in vivo; settings: one s.c. injection 40 mg/kg one hour after initiation of hemorrhage; n=12
Protocol: The effect of treatment in a rat model of hemorrhagic trauma was examined. Twenty-four rats were subjected to 40% loss of total blood volume, consisting of catheterization and laparotomy (soft tissue injury) to mimic trauma and hemorrhage. One hour after onset of hemorrhage, the animals were resuscitated with crystalloid fluid and packed red blood cells (PRBCs). […] Twelve animals received subcutaneous methyl cellulose control injection at 100 μL/kg body weight.

[9] = test system: male Wistar rats, DNBS colitis; test: DNBS induced distal colitis; type: in vivo, rat; settings: s.c. once a day for 6 days, 0.2 or 2.0 mg/animal/day; 25-30% decrease considered significant
Protocol: Treatment of gastrointestinal inflammation. The capacity of formula 1 compounds to limit or inhibit inflammation or symptoms of inflammation was shown using an animal model for inflammatory bowel disease. Groups of 3 male Wistar rats (180±20 grams) fasted for 24 hours before 2,4-dinitrobenzene sulfonic acid (DNBS) or saline challenge were used. Distal colitis was induced by intra-colonic instillation of 0.5 mL of an ethanolic solution of DNBS (30 mg in 0.5 mL of a 30% ethanol in saline solution) after which 2 mL of air was injected through the cannula to ensure that the solution remained in the colon. The volume used was 0.1 mL per injection of 2 and 20 mg/mL of compound such as androst-5-ene-3β,7β,17β-triol in a liquid formulation, which was administered by subcutaneous injection once a day for 6 days (0.2 mg/animal/day or 2.0 mg/animal/day). The formulation contained 100 mg/mL of compound in a non-aqueous suspension, e.g., 2% benzyl alcohol w/v, 0.1% Brij 96 w/v and equal volumes of PEG 300 and propylene glycol. Concentrations of 2 mg/mL and 20 mg/mL were obtained by diluting the […] with vehicle that lacked compound.
The first dose was given 30 minutes after DNBS challenge. […] The presence of diarrhea was recorded daily by examining the anal area. […] Before removal of the colon, signs of adhesion between the colon and other organs are recorded. […]

[10] = test system: gerbils, cerebral ischemic stroke; test: acute cerebral ischemic stroke by bilateral carotid occlusion; type: in vivo, gerbil; settings: stroke treated
Text: Treatment of neuron loss associated with trauma and osteoporosis or bone loss conditions. Immune competence is a complex function that can be acutely impaired following trauma-induced elevations in endogenous glucocorticoid (GC) levels. The compound 5-androstene-3β,7β,17β-triol administered parenterally was used to preserve these immune function by exerting a trophic or anabolic activity. […] Thus, the measured food-searching latency period in each group was 6.9±0.9 seconds (sec) for sham, 46.9±13.6 sec for stroke alone and 14.8±4.8 sec for stroke treated with 5-androstene-3β,7β,17β-triol. Concomitantly, the stroke-induced loss in CA1 hippocampal neuron count was markedly abrogated by 5-androstene-3β,7β,17β-triol (sham=362,247±6,839; stroke=152,354±11,575; and stroke+5-androstene-3β,7β,17β-triol=207,854±47,334).

[11] = test system: thermally-injured mice (20% total body surface area); test: bone loss in thermally-injured mice; type: in vivo, mouse
Text: In bone loss conditions, 5-androstene-3β,7β,17β-triol affected the principal bone structures, i.e., cortical and trabecular layers and the growth plate. […] We observed partial protection against loss of bone mineral content as measured by dual X-ray absorptiometry.

PPARα mRNA = test: liver mRNA by RT-PCR in rats fed compound in chow: PPARα; type: in vivo, rat; settings: 0.45% wt/wt in chow for 6 days; control 100%
Text: as §2

PEPCK mRNA = test: liver mRNA by RT-PCR in rats fed compound in chow: PEPCK; type: in vivo, rat; settings: 0.45% wt/wt in chow for 6 days; control 100%
Text: as §2

Chain of androgen receptor (P10275 whole entry, species assumed): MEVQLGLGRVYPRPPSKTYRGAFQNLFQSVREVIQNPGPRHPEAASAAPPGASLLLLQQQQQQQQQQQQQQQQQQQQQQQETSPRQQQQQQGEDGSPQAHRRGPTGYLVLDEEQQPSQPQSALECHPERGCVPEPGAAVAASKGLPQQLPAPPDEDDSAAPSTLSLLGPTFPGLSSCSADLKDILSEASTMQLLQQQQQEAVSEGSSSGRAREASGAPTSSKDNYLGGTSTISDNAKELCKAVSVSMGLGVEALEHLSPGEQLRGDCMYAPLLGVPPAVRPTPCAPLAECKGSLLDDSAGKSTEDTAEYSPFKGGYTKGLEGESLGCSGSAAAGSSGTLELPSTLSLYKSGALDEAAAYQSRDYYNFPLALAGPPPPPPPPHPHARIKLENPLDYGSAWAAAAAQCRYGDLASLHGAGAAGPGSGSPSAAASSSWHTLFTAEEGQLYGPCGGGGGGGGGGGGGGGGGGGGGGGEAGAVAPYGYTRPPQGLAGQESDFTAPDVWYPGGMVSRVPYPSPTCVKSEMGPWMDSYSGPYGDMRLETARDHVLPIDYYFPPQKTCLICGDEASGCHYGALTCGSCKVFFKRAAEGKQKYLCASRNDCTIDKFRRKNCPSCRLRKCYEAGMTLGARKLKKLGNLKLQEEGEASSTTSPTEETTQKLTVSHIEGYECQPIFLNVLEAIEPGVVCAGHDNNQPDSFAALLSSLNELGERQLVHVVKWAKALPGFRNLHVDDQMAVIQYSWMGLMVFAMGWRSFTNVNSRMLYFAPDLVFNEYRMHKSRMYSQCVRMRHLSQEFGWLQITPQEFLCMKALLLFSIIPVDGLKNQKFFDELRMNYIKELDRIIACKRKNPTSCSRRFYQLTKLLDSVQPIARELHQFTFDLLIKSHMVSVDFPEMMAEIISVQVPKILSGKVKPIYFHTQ

C[C@]12CC[C@H]3[C@@H]([C@@H](O)C=C4C[C@@H](O)CC[C@@]43C)[C@@H]1C[C@@H](O)[C@@H]2O [androst-5-ene-3β,7β,16α,17β-tetrol]
course of EAE compared to vehicle-treated mice (female SJL mice, EAE): significantly improved course of EAE
parent remaining human microsomes ([1]; 10 min): 100% (10 min)
interaction with androgen receptor (androgen receptor): do not interact
level of IL-6 in BAL compared to vehicle treated animals [2]: reduced levels
level of MPO compared to vehicle treated animals [2]: reduced levels
level of TNFα in BAL compared to vehicle treated animals [2]: reduced levels
permeability in the CaCo-2 cell line (CaCo-2 cell monolayer): not highly permeable
degree of sulfation and degree of glucuronidation compared to diols [3]: low
osteoprotegerin levels in the presence of 30 nM dexamethasone (MG-63 cells): normal osteoprotegerin levels
parent remaining mouse microsomes [4]: 100% (10 min)
interaction with estrogen receptor-s or estrogen receptor-s [5]: do not interact
augmenting muscle glucose uptake in the gastrocnemius muscle ([6]; ^14C-2-deoxyglucose, p<0.05): more effective
glucose infusion rate compared to the vehicle control ([6]; oral gavage 14 days, insulin 10 mU/kg/min): increased the glucose infusion rate

C[C@]12CC[C@H]3[C@@H]([C@@H](O)C=C4C[C@@H](O)CC[C@@]43C)[C@@H]1CC[C@@H]2O [androst-5-ene-3β,7β,17β-triol]
mortality rate two days after induction of hemorrhage [7]: 43%
11β-HSD1 mRNA (11β-HSD1 mRNA): 45%
survival rate three days after induction of hemorrhage [8]: 100%
parent remaining human microsomes ([1]; 90 min): 86% (90 min)
decrease in net colon-to-body weight ratio [9]: 15-20%
food-searching latency period ([10]; sham 6.9±0.9, stroke alone 46.9±13.6): 14.8 ± 4.8 s
CA1 hippocampal neuron count ([10]; sham 362,247±6,839, stroke 152,354±11,575): 207,854±47,334
femur ash weight versus vehicle-treated burned mice [11]: significantly (p<0.01) greater
loss of cortical (femur) and trabecular/cancellous (tibia) bone mass and suppression of chondrocyte proliferation in growth plate [11]: significantly (p<0.01) prevented
PPARα mRNA (PPARα mRNA): 105%
PEPCK mRNA (PEPCK mRNA): 30%
parent remaining mouse microsomes [4]: 89% (10 min)
